Where two headings read alike, the source gives them in different places.

The target of one assay is hsst2 (Homo sapiens, UniProt P30874). As to the kind of experiment: Binding of beta-MeTrp analogs of L-363,301 to hsst2.
The subject of assay [1] is somatostatin receptors hsst1-5. The assay is described as follows: Binding potencies and selectivities at somatostatin receptors hsst1-5. On the set-up: species or system human.
A further assay has as its system SST 1-5. The note with it: background statement; cited from earlier work.
Another assay addresses SST1 (Homo sapiens, UniProt P30872). As to the kind of experiment: Binding affinities of SS-14, Sandostatin and RC-121 (Table 1). As to conditions: read-out: Ki ± SEM, SST1.
In the next assay the target is SST3 (Homo sapiens, UniProt P32745). The description is as above. The note with it: read-out: Ki ± SEM, SST3.
Another assay concerns the target SST4 (Homo sapiens, UniProt P31391). Described as above. The note with it: read-out: Ki ± SEM, SST4.

hsst2, sequence (P30874 whole entry): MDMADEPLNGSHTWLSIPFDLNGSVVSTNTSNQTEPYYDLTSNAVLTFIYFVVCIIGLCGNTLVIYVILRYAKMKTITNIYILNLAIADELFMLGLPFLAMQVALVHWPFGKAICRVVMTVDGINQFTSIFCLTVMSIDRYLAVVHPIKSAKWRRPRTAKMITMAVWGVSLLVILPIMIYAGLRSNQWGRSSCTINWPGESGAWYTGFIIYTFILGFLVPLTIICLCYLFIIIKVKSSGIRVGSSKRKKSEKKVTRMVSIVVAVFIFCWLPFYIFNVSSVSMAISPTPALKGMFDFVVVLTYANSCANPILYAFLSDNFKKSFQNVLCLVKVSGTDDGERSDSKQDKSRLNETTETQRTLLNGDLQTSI
SST4, sequence (P31391 whole entry, species assumed): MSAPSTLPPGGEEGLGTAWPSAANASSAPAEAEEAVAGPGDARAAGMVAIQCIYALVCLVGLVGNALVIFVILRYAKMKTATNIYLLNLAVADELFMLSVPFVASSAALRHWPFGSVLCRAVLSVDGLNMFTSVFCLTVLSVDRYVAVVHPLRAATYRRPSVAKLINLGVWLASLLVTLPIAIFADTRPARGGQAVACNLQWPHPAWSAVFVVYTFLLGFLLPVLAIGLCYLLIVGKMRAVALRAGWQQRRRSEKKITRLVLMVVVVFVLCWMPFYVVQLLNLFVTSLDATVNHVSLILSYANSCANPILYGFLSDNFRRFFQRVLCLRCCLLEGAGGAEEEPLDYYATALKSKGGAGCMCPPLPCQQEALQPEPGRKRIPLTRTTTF
SST3, sequence (P32745 whole entry, species assumed): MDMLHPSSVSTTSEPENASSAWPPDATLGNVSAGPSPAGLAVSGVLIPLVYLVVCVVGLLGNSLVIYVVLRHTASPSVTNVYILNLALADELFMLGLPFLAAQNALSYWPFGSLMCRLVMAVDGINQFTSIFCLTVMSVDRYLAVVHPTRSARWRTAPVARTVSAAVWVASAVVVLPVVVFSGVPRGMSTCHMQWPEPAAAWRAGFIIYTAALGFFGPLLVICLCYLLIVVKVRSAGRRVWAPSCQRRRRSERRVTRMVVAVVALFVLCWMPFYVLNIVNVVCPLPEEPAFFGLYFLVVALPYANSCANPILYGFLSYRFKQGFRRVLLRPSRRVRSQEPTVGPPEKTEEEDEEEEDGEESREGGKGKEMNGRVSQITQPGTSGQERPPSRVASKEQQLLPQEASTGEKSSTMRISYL
SST1, sequence (P30872 whole entry, species assumed): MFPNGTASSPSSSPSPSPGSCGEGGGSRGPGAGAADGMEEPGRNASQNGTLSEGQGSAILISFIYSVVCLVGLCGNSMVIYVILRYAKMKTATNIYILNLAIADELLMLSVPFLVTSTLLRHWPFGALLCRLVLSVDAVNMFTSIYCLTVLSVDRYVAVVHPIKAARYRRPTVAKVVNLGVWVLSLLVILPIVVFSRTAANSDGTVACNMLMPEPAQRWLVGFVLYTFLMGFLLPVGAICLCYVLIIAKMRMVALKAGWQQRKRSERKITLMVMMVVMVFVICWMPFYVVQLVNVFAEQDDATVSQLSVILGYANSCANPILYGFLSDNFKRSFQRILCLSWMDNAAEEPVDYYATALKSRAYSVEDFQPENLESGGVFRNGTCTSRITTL

Turning to c[Pro-Phe-(2R,3S)-β-MeTrp-Lys-Thr-Phe], the “binding to receptor hsst2” value on hsst2 was “nanomolar range”. Further, the “binding to receptor hsst2” value at hsst2 (listed as (2R,3S)-β-MeTrp diastereomer) is “bind very well to hsst2”. Also, in assay [1], the “potency relative to parent peptide L-363,301” value is “more potent than the parent peptide” and the “selectivity among hsst1-5” value was “highly selective for hsst2”.

As for c[Pro-Phe-(2R,3R)-β-MeTrp-Lys-Thr-Phe], the “binding to receptor hsst2” value at hsst2 is listed as “nanomolar range”. Also, in assay [1], the “potency relative to parent peptide L-363,301” value is on record as “much less active” and the “selectivity among hsst1-5” value is “highly selective for hsst2”.

Take `C[C@@H](O)[C@@H]1NC(=O)[C@H](CCCCN)NC(=O)[C@@H](Cc2c[nH]c3ccccc23)NC(=O)[C@H](Cc2ccccc2)NC(=O)[C@@H](NC(=O)[C@H](N)Cc2ccccc2)CSSC[C@@H](C(=O)N[C@H](CO)[C@@H](C)O)NC1=O` [Sandostatin, D-Phe-c[Cys-Phe-D-Trp-Lys-Thr-Cys]-Thr-ol]: in the assay with SST 1-5, the “interaction with SS receptor subtypes (background)” value is “interact significantly with three of the receptor subtypes, i.e. SST2, SST3 and SST5”.

Consider “SS-28: N-terminally extended version of SS-14 that has an additional 14 amino acid residues”, for which, in the assay with SST 1-5, the “interaction with SS receptor subtypes (background)” value is reported as “high affinity”.

With `CC(C)[C@@H]1NC(=O)[C@H](CCCCN)NC(=O)[C@@H](Cc2c[nH]c3ccccc23)NC(=O)[C@H](Cc2ccc(O)cc2)NC(=O)[C@@H](NC(=O)[C@H](N)Cc2ccccc2)CSSC[C@@H](C(=O)N[C@H](C(N)=O)[C@@H](C)O)NC1=O` [RC-121, D-Phe-c[Cys-Tyr-D-Trp-Lys-Val-Cys]-Thr-NH2], the Ki on SST1, at SST3 and at SST4 was greater than 1 µM each time.

Broadly, the Ki is a measure of affinity in units of concentration, obtained from inhibition or displacement.

The values are drawn from US7968080B2, “Somatostatin analogs with inhibitory activity to growth hormone release” (The Regents of the University of California, priority 2003, dated 2011).
